According to patent publication US7294715B2, “Aporphine and oxoaporphine compounds and pharmaceutical use thereof” (Lotus Pharmaceutical Co., Ltd., priority 2003, dated 2007):
Marks after values point to notes of the source that are not given here.

Key:
[1] = system: regional myocardial ischemia and reperfusion (LAD occlusion); assay: Infarct size in a rat model of regional myocardial ischemia and reperfusion; format: in vivo; details: rat, LAD occlusion 25 min, reperfusion 2 h; 0.5 mg/kg i.v.; vehicle 58±2%; P<0.05 vs vehicle
Experimental: Seventy two male Wistar rats (215-300 g, Charles River, Margate, U.K.) were anaesthetized with thiopentone sodium (Intraval®, 120 mg/kg i.p.; Rhone-Merrieux, Essex, U.K.). The rats were tracheotomised and ventilated with a Harvard ventilator (70 strokes/min, tidal volume: 8-10 ml/kg, inspiratory oxygen concentration: 30%). Body temperature was maintained at 38±1° C. The right carotid artery was cannulated and connected to a pressure transducer (MLT 844, AD Instruments Ltd, Hastings, UK) to monitor mean arterial blood pressure and heart rate, which were continuously recorded on a data acquisition system (Powerlab® Version 4.0.4, AD Instruments, Hastings, UK) installed on a Dell Dimension 4100 personal computer, throughout the experiment. The right jugular vein was cannulated for the administration of test compound and Evans Blue dye (at the end of the experiment). A parasternal thoracotomy was performed, the heart was suspended in a temporary pericardial cradle and a snare occluder was placed around the left anterior descending coronary artery (LAD). After completion of the surgical procedure the animals were allowed to stabilize for 30 min before LAD ligation. The coronary artery was occluded at time 0 by tightening of the occluder. After 25 min of acute myocardial ischemia, the occluder was released to allow reperfusion for 2 h.
The test compounds were administered as a slow intravenous injection (i.v.) 5 min prior to the onset of reperfusion of the ischemic heart. Following the 2 h reperfusion period, the coronary artery was re-occluded and Evans Blue dye (1 ml of 2% w/v) was injected into the left ventricle, via the right jugular vein cannula, to distinguish between perfused and non-perfused (AAR) sections of the heart. The Evans Blue solution stains the perfused myocardium, while the occluded vascular bed remains uncolored. The animals were sacrificed with an overdose of anesthetic and the heart excised. The heart was sectioned into slices of 3-4 mm thick, the right ventricular wall was removed, and the AAR (pink) was separated from the non-ischemic (blue) area. […]

[2] = system: eNOS; assay: Western blot analysis for eNOS protein in ischemia-reperfusion rat heart; format: in vivo; details: ischemia 25 min, reperfusion 2 h, 0.5 mg/kg at 5 min prior to reperfusion, P<0.05 vs vehicle
Experimental: To elucidate the effects of the test compounds on the infarct size caused by regional myocardial ischemia and reperfusion, all animals were randomized into 8 study groups. The first group (Sham) comprised of animals not subjected to regional myocardial ischemia (25 min) followed by reperfusion (2 h) and treated with vehicle (1 ml/kg) 5 minutes prior to the onset of reperfusion. The second group of animals were subjected to regional myocardial ischemia (25 min) followed by reperfusion (2 h) and were treated with vehicle (saline, 1 ml/kg). […]
Hearts were pulverized at −80° C. using liquid nitrogen and a stainless steel pestle and mortar. […] Total protein concentrations were determined using the Bradford method (Bio-Rad, UK). […] Signals were detected using the enhanced chemiluminescence (ECL™) detection system (Cell Signaling Technology, U.S.A.) and autoradiographic film. For quantification of protein expression all blots were reprobed for muscle α-actin expression using 1/2000 dilution of a mouse anti-human actin (muscle antibody (Serotec), followed by incubation with a goat anti-mouse HRP linked secondary antibody ( 1/2000 dilution) (DakoCytomation, Denmark). Densitometry analysis was performed on scanned images (Hewlett Packard Scanjet) and analyzed using Scion Image (Scion Corp, National Institutes of Health, Bethesda, Md.).

[3] = system: Langendorff perfused rat hearts; assay: Coronary flow in Langendorff perfused rat hearts; details: FIG. 3
Experimental: Adult male Wistar rats weighing 275-325 g, were intraperitoneally anesthetized with sodium pentobarbital (50 mg·kg^−1) and given heparin (300 Ukg·kg^−1) by the same route. Hearts were rapidly excised and immersed in 37° C. perfusion medium. The aorta was cannulated and retrograde-perfused at 80 mmHg with Tyrode's solution containing 120 mM NaCl, 25 mM NaHCO3, 3 mM KCl, 1.2 mM NaH2PO4, 2.5 mM CaCl2, 1.2 mM MgCl2, and […] 5.5 mM glucose. The perfusate was equilibrated with 95% O2, 5% CO2 at 37° C. Perfusion pressure was monitored using a MLT844/D pressure transducer (Capto, Horten, Norway) connected to a PowerLab (ADInstruments, Castle Hill, Australia). The coronary effluent was collected for the measurement of coronary flow.

[4] = system: focal cerebral ischemia-reperfusion rats; assay: Striatal blood flow in focal cerebral ischemia-reperfusion rats (laser Doppler flowmetry); format: in vivo, rat; details: 40-min common carotid occlusion plus endothelin-1, 24-hrs reperfusion, FIG. 4
[5] = Serum glucose levels in NIDDM animals; format: in vivo, mouse; details: NIDDM rats, n=5, vehicle 0
[6] = system: MCAO rats; assay: Middle cerebral artery occlusion (MCAO) cerebral ischemia lesions in rats; format: in vivo, rat; details: for Infarcted Volume (X ± SEM mm^3): vehicle D.W. 214.75 ± 26.37
Excerpt: The same effects of preventing the ischemia-reperfusion damages with aporphine and oxoaporphine compounds also found in the other organs, such as brain. After Compound 16 or Compound 21, which is a compound of Formula B (where R1, R2, R5, R6 are OMe, R3, R4, R7 are H) was administrated to male Sprague Dawley rats, the effects of test compounds on the artery occlusive cerebral ischemia in the rats were monitored. First, permanent brain ischemia was induced by middle cerebral artery occlusion (MCAO) in the rats. At 0, 6, 24, 48, and 54 hours after the formation of middle cerebral artery occlusion (MCAO), Group I (i.e., the control group) animals were given the solvent (100% DMSO) (1 ml/kg, i.p.); Group II (i.e., the control group) animals were given the distilled water (D.W.) (1 ml/kg, i.p.);Group III animals (NCM-121) were given Compound 16 (1.5 mg/kg, i.p.); Group IV animals (NCM-124) were given Compound 21 (1.7 mg/kg, i.p); Group V animals were given MK-801 (0.3 mg/kg, i.p.), an antagonist of the N-methyl-D-aspartic acid (NMDA) receptor. There were ten rats in each group. Four days after the formation of MCAO, all the rats were sacrificed. Brain sections were made and stained with 2% cresol purple. The areas and volumes of cerebral ischemia lesions in each section were recorded.

SMILES: COc1cc2c(cc1OC(C)C)C(=O)C1c3c(cc(OC(C)C)c(OC)c3-2)CCN1C (stereo not drawn) [Compound 3, 2,9-Diisopropyloxy-1,10-dimethoxy-7-oxoaporphine]
- melting point: 82 to 84 °C

SMILES: COc1cc2c(cc1O)C(=O)C1c3c(cc(OC(C)C)c(OC)c3-2)CCN1C (stereo not drawn) [Compound 4, 9-hydroxy-2-isopropyloxy-1,10-dimethoxy-7-oxoaporphine]
- melting point: 240 to 242 °C

SMILES: COc1ccc2c(c1)-c1c(OC)ccc3c1C(C2=O)N(C)CC3 (stereo not drawn) [Compound 7, 1,10-dimethoxy-7-oxoaporphine]
- melting point: 162 to 164 °C

SMILES: COc1cc2c(cc1OC)-c1c(O)c(OC)cc3c1C(C2)N(C)CC3 (stereo not drawn) [Compound 20]
- infarct size [1]: 34±4 % of the area at risk
- reduction in eNOS protein expression caused by ischemia and reperfusion [2]: significantly reduced
- coronary blood flow [3]: increasing coronary blood flow
- blood flow in brain (striatal blood flow) [4]: increase in blood flow in brain
- serum glucose Percentage of change (%) ([5]; 3 mg/kg × 3 days, iv, 90 minutes after last dose vs pre-treatment): 12 ± 3.5%

SMILES: COc1cc2c(cc1OC)-c1c(OC)c(OC)cc3ccnc(c13)C2=O [Compound 21]
- Infarcted Volume (X ± SEM mm^3) ([6]; IP 1.7 mg/kg × 6, N=10, four days after MCAO): 133.75 ± 19.57* mm^3
- % Decrease in total volume of ischemic lesions ([6]; IP 1.7 mg/kg × 6, vs Group II vehicle (D.W.)): 37.72%
- effects in reducing the areas and volumes of cerebral ischemia lesions as compared with MK-801 ([6]; comparison in words): more significant effects
- coronary blood flow [3]: increasing coronary blood flow

SMILES: C[C@]12N[C@H](Cc3ccccc31)c1ccccc12 [MK-801, reference compound]
- Infarcted Volume (X ± SEM mm^3) ([6]; IP 0.3 mg/kg × 6, N=10, four days after MCAO): 47.34 ± 13.79* mm^3
- % Decrease in total volume of ischemic lesions ([6]; IP 0.3 mg/kg × 6, vs Group II vehicle (D.W.)): 77.96%

SMILES: CN(C)C(=N)N=C(N)N [Metformin, reference compound]
- serum glucose Percentage of change (%) ([5]; 100 mg/kg × 3 days, po): 39 ± 1.6%
